Source: patent US10711004B2 (Genentech, Inc., priority 2018, dated 2020)
pIC50: −log10 of the molar value. Like-named read-outs stand apart in the source and are kept apart here.

Target: human TRPA1 channel (Homo sapiens (Human), UniProt O75762)
Experiment: hTRPA1 CHO Ca2+ FLIPR Tetra assay, block of cinnamaldehyde induced calcium influx
Assay type: cell-based
Conditions: CHO cells expressing TRPA1, Hill coefficient fixed to 1.5
Summary of the method: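 IC50 values come from fixed-Hill fits of inhibition of cinnamaldehyde-induced (about EC50 level) calcium influx measured by FLIPR Tetra. Before agonist, TRPA1-expressing CHO cells loaded with calcium indicator were exposed to compound for 10 or 90 min at room temperature in HEPES-buffered HBSS, pH 7.4, with 0.02% BSA.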

[1] = read-out: hTRPA1 IC50 (10 min), compounds incubated 10 minutes at room temperature before cinnamaldehyde agonist
[2] = read-out: hTRPA1 IC50 (90 min), compounds incubated 90 minutes at room temperature before cinnamaldehyde agonist

Chain of human TRPA1 channel (O75762 whole entry): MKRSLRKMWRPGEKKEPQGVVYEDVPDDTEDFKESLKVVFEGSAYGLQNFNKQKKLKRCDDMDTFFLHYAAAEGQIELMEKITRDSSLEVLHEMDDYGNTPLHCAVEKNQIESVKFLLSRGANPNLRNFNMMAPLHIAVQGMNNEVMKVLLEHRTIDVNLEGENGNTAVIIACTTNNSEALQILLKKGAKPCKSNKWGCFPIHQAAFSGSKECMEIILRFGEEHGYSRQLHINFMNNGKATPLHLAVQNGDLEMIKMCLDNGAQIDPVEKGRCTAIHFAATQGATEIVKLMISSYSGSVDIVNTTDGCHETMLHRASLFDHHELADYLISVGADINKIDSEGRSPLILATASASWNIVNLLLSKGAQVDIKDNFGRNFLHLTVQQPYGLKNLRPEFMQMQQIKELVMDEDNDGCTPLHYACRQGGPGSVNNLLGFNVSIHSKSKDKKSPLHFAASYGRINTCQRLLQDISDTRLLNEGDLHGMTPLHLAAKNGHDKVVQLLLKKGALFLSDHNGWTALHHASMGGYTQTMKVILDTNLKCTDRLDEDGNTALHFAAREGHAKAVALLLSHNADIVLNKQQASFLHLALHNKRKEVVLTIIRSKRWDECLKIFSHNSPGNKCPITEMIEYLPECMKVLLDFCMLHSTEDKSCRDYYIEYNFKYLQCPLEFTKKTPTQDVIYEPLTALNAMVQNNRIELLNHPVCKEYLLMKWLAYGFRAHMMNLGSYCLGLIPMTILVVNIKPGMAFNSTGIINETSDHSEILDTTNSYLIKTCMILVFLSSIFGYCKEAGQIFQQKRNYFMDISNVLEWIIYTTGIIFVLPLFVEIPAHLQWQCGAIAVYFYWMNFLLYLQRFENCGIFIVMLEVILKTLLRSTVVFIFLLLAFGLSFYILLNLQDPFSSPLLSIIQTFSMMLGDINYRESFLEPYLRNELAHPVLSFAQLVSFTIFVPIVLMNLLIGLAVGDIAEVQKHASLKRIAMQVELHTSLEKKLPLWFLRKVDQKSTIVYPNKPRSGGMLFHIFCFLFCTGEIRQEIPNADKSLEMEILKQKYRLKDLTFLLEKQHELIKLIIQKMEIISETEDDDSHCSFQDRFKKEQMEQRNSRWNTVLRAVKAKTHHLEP

Row | SMILES | pIC50 [1] | pIC50 [2] | pIC50 (read-out: hTRPA1 IC50 (10 min), compounds incubated 10 minutes at room temperature before cinnamaldehyde agonist, listed as 254) | pIC50 (read-out: hTRPA1 IC50 (90 min), compounds incubated 90 minutes at room temperature before cinnamaldehyde agonist, listed as 254)
1 | Nc1ccc2c(=O)n(Cc3nc([C@H]4[C@@H]5C=C(c6ccccc6)C[C@@H]54)no3)cnc2n1 [Example Compound 239, 7-amino-3-[[3-[(1S,5S,6R)-3-phenyl-6-bicyclo[3.1.0]hex-2-enyl]-1,2,4-oxadiazol-5-yl]methyl]pyrido[2,3-d]pyrimidin-4-one] | 7.98 | 8.28 | – | –
2 | Cn1cnc2ncn(Cc3nc([C@@H]4[C@H]5CC[C@H](Oc6ccccc6)[C@H]54)no3)c(=O)c21 [Example Compound 240, 7-methyl-1-[[3-[(1R,2S,5R,6R)-2-phenoxy-6-bicyclo[3.1.0]hexanyl]-1,2,4-oxadiazol-5-yl]methyl]purin-6-one] | 6.60 | 7.10 | – | –
3 | CC(=O)Nc1nc2ncn(Cc3nc([C@H]4[C@@H]5C=C(c6ccccc6)C[C@@H]54)no3)c(=O)c2n1C [Example Compound 241, N-[7-methyl-6-oxo-1-[[3-[(1S,5S,6R)-3-phenyl-6-bicyclo[3.1.0]hex-2-enyl]-1,2,4-oxadiazol-5-yl]methyl]purin-8-yl]acetamide] | 7.17 | 7.74 | – | –
4 | Cn1cnc2ncn(Cc3nc([C@@H]4[C@H]5C=C(c6ccc(F)c(F)c6F)C[C@H]54)no3)c(=O)c21 [Example Compound 242, 7-methyl-1-[[3-[(1R,5R,6S)-3-(2,3,4-trifluorophenyl)-6-bicyclo[3.1.0]hex-2-enyl]-1,2,4-oxadiazol-5-yl]methyl]purin-6-one] | 7.72 | 8.20 | – | –
5 | Cn1c(NC2COC2)nc2ncn(Cc3nc([C@H]4[C@@H]5C=C(c6ccccc6)C[C@@H]54)no3)c(=O)c21 [Example Compound 243, 7-methyl-8-(oxetan-3-ylamino)-1-[[3-[(1S,5S,6R)-3-phenyl-6-bicyclo[3.1.0]hex-2-enyl]-1,2,4-oxadiazol-5-yl]methyl]purin-6-one] | 7.00 | 7.35 | – | –
6 | CN(C)C(=O)CNc1nc2ncn(Cc3nc([C@H]4[C@@H]5C=C(c6ccccc6)C[C@@H]54)no3)c(=O)c2n1C [Example Compound 244, N,N-dimethyl-2-[[7-methyl-6-oxo-1-[[3-[(1S,5S,6R)-3-phenyl-6-bicyclo[3.1.0]hex-2-enyl]-1,2,4-oxadiazol-5-yl]methyl]purin-8-yl]amino]acetamide] | 7.16 | 7.59 | – | –
7 | Cn1c(NC2CCOCC2)nc2ncn(Cc3nc([C@H]4[C@@H]5C=C(c6ccccc6)C[C@@H]54)no3)c(=O)c21 [Example Compound 245, 7-methyl-1-[[3-[(1S,5S,6R)-3-phenyl-6-bicyclo[3.1.0]hex-2-enyl]-1,2,4-oxadiazol-5-yl]methyl]-8-(tetrahydropyran-4-ylamino)purin-6-one] | 7.10 | 7.37 | – | –
8 | CCNc1nc2ncn(Cc3nc([C@H]4[C@@H]5C=C(c6ccccc6)C[C@@H]54)no3)c(=O)c2n1C [Example Compound 246, 8-(ethylamino)-7-methyl-1-[[3-[(1S,5S,6R)-3-phenyl-6-bicyclo[3.1.0]hex-2-enyl]-1,2,4-oxadiazol-5-yl]methyl]purin-6-one] | 7.27 | 7.54 | – | –
9 | Cn1cnc2ncn(Cc3nc([C@H]4[C@@H]5CN(c6ccc(C#N)cc6F)C[C@@H]54)no3)c(=O)c21 [Example Compound 247, 3-fluoro-4-[(1S,5R)-6-[5-[(7-methyl-6-oxo-purin-1-yl)methyl]-1,2,4-oxadiazol-3-yl]-3-azabicyclo[3.1.0]hexan-3-yl]benzonitrile] | 7.24 | 7.64 | – | –
10 | Cn1cnc2ncn(Cc3nc([C@@H]4[C@H]5C=C(c6ccccc6)[C@@H](O)[C@H]54)no3)c(=O)c21 [Example Compound 250, 7-methyl-1-[[3-[(1R,4S,5R,6R)-4-hydroxy-3-phenyl-6-bicyclo[3.1.0]hex-2-enyl]-1,2,4-oxadiazol-5-yl]methyl]purin-6-one] | 6.51 | 7.40 | – | –
11 | Cn1cnc2ncn(Cc3nc([C@H]4[C@@H]5C=C(c6cc(F)c(F)c(F)c6)C[C@@H]54)no3)c(=O)c21 [Example Compound 251, 7-methyl-1-[[3-[(1S,5S,6R)-3-(3,4,5-trifluorophendyl)-6-bicyclo[3.1.0]hex-2-enyl]-1,2,4-oxadiazol-5-yl]methyl]purin-6-one] | 7.83 | 8.70 | – | –
12 | Cn1c(NCCO)nc2ncn(Cc3nc([C@H]4[C@@H]5C=C(c6ccccc6)C[C@@H]54)no3)c(=O)c21 [Example Compound 252, 8-(2-hydroxyethylamino)-7-methyl-1-[[3-[(1S,5S,6R)-3-phenyl-6-bicyclo[3.1.0]hex-2-enyl]-1,2,4-oxadiazol-5-yl]methyl]purin-6-one] | 6.52 | 7.17 | – | –
13 | Cc1cnn2ncn(Cc3nc([C@H]4C[C@](F)(c5cccc(Cl)c5)C4)no3)c(=O)c12 [Example Compound 253, 3-[[3-[trans-3-(3-chlorophenyl)-3-fluoro-cyclobutyl]-1,2,4-oxadiazol-5-yl]methyl]-5-methyl-pyrazolo[5,1-f][1,2,4]triazin-4-one] | 7.36 | 7.51 | – | –
14 | Cn1cnc2ncn(Cc3nc([C@@H]4[C@H]5C=C(c6cccc(F)c6F)C[C@H]54)no3)c(=O)c21 [Example Compound 254, 7-methyl-1-[[3-[(1R,5R,6S)-3-(2,3-difluorophenyl)-6-bicyclo[3.1.0]hex-2-enyl]-1,2,4-oxadiazol-5-yl]methyl]purin-6-one] | – | – | 7.91 | 8.68
15 | Cn1c(N)nc2ncn(Cc3nc([C@H]4[C@@H]5C=C(c6ccccc6)C[C@@H]54)no3)c(=O)c21 [Example Compound 255, 8-amino-7-methyl-1-[[3-[(1S,5S,6R)-3-phenyl-6-bicyclo[3.1.0]hex-2-enyl]-1,2,4-oxadiazol-5-yl]methyl]purin-6-one] | 7.48 | 8.42 | – | –
16 | Cn1cnc2ncn(Cc3nc([C@H]4[C@@H]5C=C(c6ccc(C#N)cc6)C[C@@H]54)no3)c(=O)c21 [Example Compound 256, 4-[(1S,5S,6R)-6-[5-[(7-methyl-6-oxo-purin-1-yl)methyl]-1,2,4-oxadiazol-3-yl]-3-bicyclo[3.1.0]hex-2-enyl]benzonitrile] | 7.66 | 8.18 | – | –
17 | Cn1cnc2ncn(Cc3nc([C@H]4C[C@H](Cc5cccc(Cl)c5)C4)no3)c(=O)c21 [Example Compound 257, 1-[[3-[trans-3-[(3-chlorophenyl)methyl]cyclobutyl]-1,2,4-oxadiazol-5-yl]methyl]-7-methyl-purin-6-one] | 7.78 | 7.72 | – | –
18 | Cn1cnc2ncn(Cc3nc([C@H]4[C@@H]5CN(c6cc(F)c(C#N)c(F)c6)C[C@@H]54)no3)c(=O)c21 [Example Compound 258, 2,6-difluoro-4-[(1S,5R)-6-[5-[(7-methyl-6-oxo-purin-1-yl)methyl]-1,2,4-oxadiazol-3-yl]-3-azabicyclo[3.1.0]hexan-3-yl]benzonitrile] | 7.11 | 7.74 | – | –
19 | Cn1cnc2nnn(Cc3nc([C@H]4[C@@H]5C=C(c6ccccc6)C[C@@H]54)no3)c(=O)c21 [Example Compound 259, 5-methyl-3-[[3-[(1S,5S,6R)-3-phenyl-6-bicyclo[3.1.0]hex-2-enyl]-1,2,4-oxadiazol-5-yl]methyl]imidazo[4,5-d]triazin-4-one] | 7.60 | 7.80 | – | –
20 | COCCNc1nc2ncn(Cc3nc([C@@H]4[C@H]5C=C(c6ccccc6)C[C@H]54)no3)c(=O)c2n1C [Example Compound 260, 8-(2-methoxyethylamino)-7-methyl-1-[[3-[(1R,5R,6S)-3-phenyl-6-bicyclo[3.1.0]hex-2-enyl]-1,2,4-oxadiazol-5-yl]methyl]purin-6-one] | 7.37 | 7.46 | – | –
21 | Nc1ccc2c(=O)n(Cc3nc([C@H]4[C@@H]5CN(c6cccc(F)c6)C[C@@H]54)no3)cnc2n1 [Example Compound 261, 7-amino-3-[[3-[(1R,5S)-3-(3-fluorophenyl)-3-azabicyclo[3.1.0]hexan-6-yl]-1,2,4-oxadiazol-5-yl]methyl]pyrido[2,3-d]pyrimidin-4-one] | 8.01 | 8.37 | – | –
22 | CNc1nc2ncn(Cc3nc([C@@H]4[C@H]5C=C(c6ccccc6)C[C@H]54)no3)c(=O)c2n1C [Example Compound 262, 7-methyl-8-(methylamino)-1-[[3-[(1R,5R,6S)-3-phenyl-6-bicyclo[3.1.0]hex-2-enyl]-1,2,4-oxadiazol-5-yl]methyl]purin-6-one] | 7.47 | 7.85 | – | –
23 | Cn1c(Cl)nc2ncn(Cc3nc([C@@H]4[C@H]5C=C(c6ccccc6)C[C@H]54)no3)c(=O)c21 [Example Compound 263, 8-chloro-7-methyl-1-[[3-[(1R,5R,6S)-3-phenyl-6-bicyclo[3.1.0]hex-2-enyl]-1,2,4-oxadiazol-5-yl]methyl]purin-6-one] | 7.80 | 8.19 | – | –
24 | Cn1cnc2ncn(Cc3nc([C@@H]4[C@H]5C=C(c6ccc7c(cnn7C)c6)C[C@H]54)no3)c(=O)c21 [Example Compound 264, 7-methyl-1-[[3-[(1R,5R,6S)-3-(1-methylindazol-5-yl)-6-bicyclo[3.1.0]hex-2-enyl]-1,2,4-oxadiazol-5-yl]methyl]purin-6-one] | 7.54 | 7.85 | – | –
25 | Cn1c(=O)ccc2ncn(Cc3nc([C@@H]4[C@H]5C=C(c6ccccc6)C[C@H]54)no3)c(=O)c21 [Example Compound 265, 5-methyl-3-[[3-[(1R,5R,6S)-3-phenyl-6-bicyclo[3.1.0]hex-2-enyl]-1,2,4-oxadiazol-5-yl]methyl]pyrido[3,2-d]pyrimidine-3,6-dione] | 7.79 | 7.92 | – | –
